From ChEMBL document CHEMBL4627246, “Pyroglutamide-Based P2X7 Receptor Antagonists Targeting Inflammatory Bowel Disease” (J Med Chem, 2020)

Experiments:
Format in all cases: cell-based
[1] = system: A549; experiment: Cytotoxicity against human A549/ATCC cells assessed as effect on cell growth at 10 uM incubated for 48 hrs by sulforhodamine B assay; conditions: a549, 48 h
[2] = system: RPMI-8226; experiment: Cytotoxicity against human RPMI8226 cells assessed as effect on cell growth at 10 uM incubated for 48 hrs by sulforhodamine B assay; conditions: rpmi-8226, 48 h
[3] = system: MOLT-4; experiment: Cytotoxicity against human MOLT4 cells assessed as effect on cell growth at 10 uM incubated for 48 hrs by sulforhodamine B assay; conditions: molt-4, 48 h
[4] = system: NCI-H226; experiment: Cytotoxicity against human NCI-H226 cells assessed as effect on cell growth at 10 uM incubated for 48 hrs by sulforhodamine B assay; conditions: nci-h226, 48 h
[5] = system: NCI-H23; experiment: Cytotoxicity against human NCI-H23 cells assessed as effect on cell growth at 10 uM incubated for 48 hrs by sulforhodamine B assay; conditions: nci-h23, 48 h
[6] = system: NCI-H522; experiment: Cytotoxicity against human NCI-H522 cells assessed as effect on cell growth at 10 uM incubated for 48 hrs by sulforhodamine B assay; conditions: nci-h522, 48 h
[7] = system: HT-29; experiment: Cytotoxicity against human HT-29 cells assessed as effect on cell growth at 10 uM incubated for 48 hrs by sulforhodamine B assay; conditions: ht-29, 48 h
[8] = system: SF-268; experiment: Cytotoxicity against human SF268 cells assessed as effect on cell growth at 10 uM incubated for 48 hrs by sulforhodamine B assay; conditions: sf-268, 48 h
[9] = system: U-251; experiment: Cytotoxicity against human U251 cells assessed as effect on cell growth at 10 uM incubated for 48 hrs by sulforhodamine B assay; conditions: u-251, 48 h
[10] = system: LOX IMVI; experiment: Cytotoxicity against human LOXIMVI cells assessed as effect on cell growth at 10 uM incubated for 48 hrs by sulforhodamine B assay
[11] = system: M14; experiment: Cytotoxicity against human M14 cells assessed as effect on cell growth at 10 uM incubated for 48 hrs by sulforhodamine B assay; conditions: m14, 48 h
[12] = system: MDA-MB-435; experiment: Cytotoxicity against human MDA-MB-435 cells assessed as effect on cell growth at 10 uM incubated for 48 hrs by sulforhodamine B assay; conditions: mda-mb-435, 48 h
[13] = system: SK-MEL-2; experiment: Cytotoxicity against human SK-MEL-2 cells assessed as effect on cell growth at 10 uM incubated for 48 hrs by sulforhodamine B assay; conditions: sk-mel-2, 48 h
[14] = system: SK-MEL-28; experiment: Cytotoxicity against human SK-MEL-28 cells assessed as effect on cell growth at 10 uM incubated for 48 hrs by sulforhodamine B assay; conditions: sk-mel-28, 48 h
[15] = system: IGROV-1; experiment: Cytotoxicity against human IGROV1 cells assessed as effect on cell growth at 10 uM incubated for 48 hrs by sulforhodamine B assay; conditions: igrov-1, 48 h
[16] = system: OVCAR-3; experiment: Cytotoxicity against human OVCAR3 cells assessed as effect on cell growth at 10 uM incubated for 48 hrs by sulforhodamine B assay; conditions: ovcar-3, 48 h
[17] = system: SK-OV-3; experiment: Cytotoxicity against human SKOV3 cells assessed as effect on cell growth at 10 uM incubated for 48 hrs by sulforhodamine B assay; conditions: sk-ov-3, 48 h
[18] = system: CAKI-1; experiment: Growth inhibition of human Caki1 cells assessed as growth percentage at 10 uM incubated for 48 hrs by sulforhodamine B assay; conditions: caki-1, 48 h
[19] = system: SN12C; experiment: Cytotoxicity against human SN12C cells assessed as effect on cell growth at 10 uM incubated for 48 hrs by sulforhodamine B assay
[20] = system: TK-10; experiment: Cytotoxicity against human TK10 cells assessed as effect on cell growth at 10 uM incubated for 48 hrs by sulforhodamine B assay; conditions: tk-10, 48 h

Measured: Activity

CN(C)/C=C1\C[C@@H](C(=O)NCc2ccc(Cl)cc2Cl)N(c2cccs2)C1=O
Non-Toxic: [1] | [2] | [3] | [4] | [5] | [6] | [7] | [8] | [9] | [10] | [11] | [12] | [13] | [14] | [15] | [16] | [17] | [18] | [19] | [20]

O=C(NCc1ccc(Cl)cc1Cl)[C@@H]1COC(=O)N1c1cccs1
Non-Toxic: [1] | [2] | [3] | [4] | [5] | [6] | [7] | [8] | [9] | [10] | [11] | [12] | [13] | [14] | [15] | [16] | [17] | [18] | [19] | [20]

O=C(NCc1ccc(Cl)cc1Cl)[C@@H]1CCC(=O)N1c1ccsc1
Non-Toxic: [1] | [2] | [3] | [4] | [5] | [6] | [7] | [8] | [9] | [10] | [11] | [12] | [13] | [14] | [15] | [16] | [17] | [18] | [19] | [20]

O=C(NCc1ccc(Cl)cc1Cl)[C@@H]1CCC(=O)N1c1nccs1
Non-Toxic: [1] | [2] | [3] | [4] | [5] | [6] | [7] | [8] | [9] | [10] | [11] | [12] | [13] | [14] | [15] | [16] | [17] | [18] | [19] | [20]

COc1cc(CN/C=C2\C[C@@H](C(=O)NCc3ccc(Cl)cc3Cl)NC2=O)cc(OC)c1OC
Non-Toxic: [1] | [2] | [3] | [4] | [5] | [6] | [7] | [8] | [9] | [10] | [11] | [12] | [13] | [14] | [15] | [16] | [17] | [18] | [19] | [20]

O=C(NCc1ccccc1)[C@@H]1CCC(=O)N1Cc1ccc(Cl)cc1Cl
Non-Toxic: [1] | [2] | [3] | [4] | [5] | [6] | [7] | [8] | [9] | [10] | [11] | [12] | [13] | [14] | [15] | [16] | [17] | [18] | [19] | [20]

O=C(NCc1ccc(Cl)cc1Cl)[C@@H]1CCC(=O)N1c1ccccc1
Non-Toxic: [1] | [2] | [3] | [4] | [5] | [6] | [7] | [8] | [9] | [10] | [11] | [12] | [13] | [14] | [15] | [16] | [17] | [18] | [19] | [20]

CN(Cc1ccccc1)C(=O)[C@@H]1CCC(=O)N1Cc1ccc(Cl)cc1Cl
Non-Toxic: [1] | [2] | [3] | [4] | [5] | [6] | [7] | [8] | [9] | [10] | [11] | [12] | [13] | [14] | [15] | [16] | [17] | [18] | [19] | [20]

O=C1N[C@H](C(=O)NCc2ccc(Cl)cc2Cl)CO1
Non-Toxic: [1] | [2] | [3] | [4] | [5] | [6] | [7] | [8] | [9] | [10] | [11] | [12] | [13] | [14] | [15] | [16] | [17] | [18] | [19] | [20]

O=C(NCc1ccc(Cl)cc1Cl)[C@@H]1CCC(=O)N1c1cscn1
Non-Toxic: [1] | [2] | [3] | [4] | [5] | [6] | [7] | [8] | [9] | [10] | [11] | [12] | [13] | [14] | [15] | [16] | [17] | [18] | [19] | [20]

O=C(NCc1ccc(Cl)cc1Cl)[C@@H]1CCC(=O)N1c1cncs1
Non-Toxic: [1] | [2] | [3] | [4] | [5] | [6] | [7] | [8] | [9] | [10] | [11] | [12] | [13] | [14] | [15] | [16] | [17] | [18] | [19] | [20]

CN(C)C(=O)[C@@H]1CCC(=O)N1
Non-Toxic: [1] | [2] | [3] | [4] | [5] | [6] | [7] | [8] | [9] | [10] | [11] | [12] | [13] | [14] | [15] | [16] | [17] | [18] | [19] | [20]

O=C(NCc1ccc(Cl)cc1Cl)[C@@H]1CCC(=O)N1Cc1ccc(Cl)cc1
Non-Toxic: [1] | [2] | [3] | [4] | [5] | [6] | [7] | [8] | [9] | [10] | [11] | [12] | [13] | [14] | [15] | [16] | [17] | [18] | [19] | [20]

O=C(NCc1ccc(Cl)cc1Cl)[C@@H]1CCC(=O)N1c1ccc(Cl)cc1
Non-Toxic: [1] | [2] | [3] | [4] | [5] | [6] | [7] | [8] | [9] | [10] | [11] | [12] | [13] | [14] | [15] | [16] | [17] | [18] | [19] | [20]
